SMILES strings stand for the structures. Bounds are passed on as bounds.

Broadly, the melting point is the temperature, or range, at which the solid turns liquid.

On to `CSC(=C[N+](=O)[O-])NCC(O)c1cccc(C)c1` (stereo not drawn), for which the melting point was in the range of 99 to 101 °C. Then `CC(CN1CCCC1)N1c2ccccc2Sc2ccc(C(=O)NCC3CCCC3)cc21` (racemic), with 124 °C; and `O=C(O)CCOc1cccc(CN2CCCCC2)c1`, with 178 to 180 °C. For the compound `Cc1ccccc1N1CCN(CCC2CN(C)C(=O)O2)CC1` (stereo not drawn), the melting point lay within 55 to 57 °C. In the case of `O=C1c2ccccc2C(=O)N1CC(=O)N1c2ccccc2N(Cc2ccccc2)C[C@@H]2CCC[C@H]21` (relative stereo) it was 232 to 234 °C. As for `CCOC(=O)NC(=O)C(C#N)=CNc1cccc(F)c1`, the melting point lay in the range of 170 to 171 °C. `O=C(O)CCCc1cc2cc(Cl)ccc2n1S(=O)(=O)c1ccc2c(c1)CCN2` had a melting point of 203 °C.

`COC12CC(C)(c3nc(-c4cncc(Br)c4)no3)CN(C)C1Cc1c(Br)n(C)c3cccc2c13` (stereo not drawn) yielded a melting point of 167 to 172 °C. In the case of `OCCOc1csc2ccccc12` it was 55 to 56 °C.

With `CON(Cc1nc2c(N)nc3cc(OCc4ccccc4)ccc3c2n1CC1CCOCC1)S(C)(=O)=O`, the melting point was in the range of 195 to 197 °C. For the compound `O=C(O)Cc1c(-c2ccccc2)n[nH]c1-c1ccccc1`, the melting point lay within 210 to 211 °C.

For `COC(=O)C=Cc1nc(C(=O)CCCC(=O)OC)ccc1OC`, the melting point lay within 87 to 89 °C. On to `OCC[Si](c1ccccc1)(c1ccccc1)c1ccccc1`, for which the melting point is 96 to 97 °C. In the case of `CCCCc1nc(C(C)(C)O)c(C(=O)O)n1Cc1ccc(-c2ccccc2C(=O)C(=O)O)cc1` it was 165 to 170 °C. `OC1C[C@H]2CN(C3=Nc4cc(Cl)ccc4Oc4ccccc43)CCN2C1` (stereo partly drawn) returned a melting point of 90 to 92 °C.

In turn, `COc1ccc(-c2cc3cc(F)c(F)cc3[nH]2)cc1NC(=S)Nc1cc(Cl)cc(Cl)c1` had a melting point of 203 to 205 °C.

`O=C(NCc1ccc(F)cc1)c1cn(N2CCOCC2)c2ccc(CN3CCOCC3)cc2c1=O`: the melting point was in the range of 165 to 167 °C. Then `COc1ccc(CCc2ccc(NC=O)cc2)cc1OC`, with 128 to 130 °C; and `CCCc1c(C(=O)C(C)C)c2ccc(C(=O)OC)cc2n1Cc1ccccc1C#N`, with 159 to 161 °C; and `CC(C)C(C(=O)O)c1ccc(OCCNC(=O)C2Cc3ccccc3N2S(=O)(=O)c2ccc(-c3cc(C(F)(F)F)ccc3Cl)cc2)cc1` (stereo not drawn), with 84 to 88 °C. `Cc1ccc(N)c(C(N)=O)c1` registered a melting point of 171 to 174 °C. Then `C[C@@H](Cn1ncc2ccc(OC[C@@H]3CO3)c(C=O)c21)NC(=O)OCc1ccccc1`, with 90 to 92 °C; and `C#CCn1c(=O)nc(-c2ccc3c(c2)OCO3)c2cc3c(cc21)OCO3`, with 235 to 240 °C; and `COc1ccc(CC(=O)NC(NC(=NC#N)Nc2ccccc2C)C(C)(C)C)cc1` (stereo not drawn), with 174 °C. Regarding `O=C(Nc1ccc(Cl)cc1)c1ccc2cccnc2c1O`, the melting point fell in the range of 207 to 209 °C. Then `COc1cc(OC)nc(N=C=S)n1`, with 85 to 86 °C; and `COc1ccc(C(=O)[C@H]2CC=CC[C@H]2C(=O)O)c2c1OC(C)(C)C2` (relative stereo), with 154 to 156 °C; and `Cc1c(NC(=O)c2ccc(CC(=O)C(C)C)cc2)ccc2cc(CN3CCCC3)cnc12`, with 146 to 147 °C. Consider `CN1CCC(c2c(O)cc(O)c3c(=O)cc(-c4ccccc4O)oc23)C1CO` (stereo not drawn), for which the melting point was 212 to 213 °C. Then `COc1cc(C)ccc1-c1nc(C)c(-c2cccnc2)[nH]1`, with 125 to 128 °C. In the case of `C=CCOc1ccc(C=CC(=O)Oc2ccc(OC(=O)C(=C)C)cc2)cc1` it was 118 °C; in that of `C=CC(=O)N1C(C)(C)CC(OC(=O)CCCC(C)(C)c2cc(OC)c(C(C)(C)CCCC(=O)OC3CC(C)(C)N(C(=O)C=C)C(C)(C)C3)cc2O)CC1(C)C`, 50 to 52 °C. Regarding `COC(=O)c1cc(-c2ccc(S(C)(=O)=O)cc2)n(-c2ccccc2)n1`, the melting point lay in the range of 190 to 193 °C. As to `CC(=O)Nc1c([N+](=O)[O-])cc(C)c(OC(F)F)c1C`, the melting point fell in the range of 184 to 185 °C.

Turning to `Nc1cccc(-c2ccc(CCN3CCN(c4nccn4-c4ccccc4)CC3)cc2)n1`, the melting point is 140 to 142 °C. Take `c1ccc(-c2nn[nH]c2-c2ccccc2)cc1`: the melting point was found to be 131 °C.

As for `CC[Si](CC)(CC)O[C@@H](C(=O)OC)[C@@H](NC(=O)OC(C)(C)C)c1ccc(C(N)=O)cc1`, the melting point is 165 °C. Then `CCCOc1ccccc1-c1nc(O)cc(C#N)n1`, with 135 to 136 °C. Turning to `O=C(O)COc1ccc2c(=O)c3cccc(Cl)c3oc2c1Cl`, the melting point was in the range of 283 to 286 °C. Then `COCCOc1ccc(C=O)c2cc3ccccc3cc12`, with 72 to 74 °C; and `NC(=O)C1CCc2cc3c(nc21)CCC3` (stereo not drawn), with 188 °C; and `C=CCOc1nc2c(c3ccccc13)c1cc(Cl)ccc1n2C`, with 147 to 148 °C. In the case of `NC(=O)CCC(=NNC(N)=S)c1ccccc1` it was 186 to 188 °C. The compound `COc1ccc(-n2nc(CC(C)(C)C(=O)O)cc2-c2ccc(Cl)cc2)cc1` registered a melting point of 172 to 174 °C. In the case of `COc1cc([N+](=O)[O-])ccc1CBr`, the melting point lay within 94 to 96 °C.

In the case of `CC1CC(=O)NN=C1c1ccc(NC(=O)C2(Cl)CC2)cc1` (stereo not drawn), the melting point fell in the range of 189 to 190 °C. In the case of `C=C1CC(C)(COc2ccc3ccc(=O)oc3c2)OC1=O` (stereo not drawn) it was 123 to 124 °C; in that of `Cn1ccnc1Sc1ccc(I)cc1Cl`, 99 to 101 °C. For the compound `CON=C(C)c1ccc(-c2ccccc2NC(=O)c2c(C)nn(C)c2F)cc1`, the melting point was found to be 153 °C. In the case of `COc1ccc(CCc2ccc(N)cc2)cc1OC` it was 115 to 116 °C; in that of `CN(C)Cc1ccc2cc(NC(=O)c3ccc(-c4ccc(Cl)cc4)cc3)ccc2n1`, 219 to 221 °C; in that of `COc1ccc(NCC(C)C#N)c([N+](=O)[O-])c1` (stereo not drawn), 114 to 115 °C.

In turn, `O=C1c2c(Cl)cccc2-n2cnc(-c3cccs3)c2[C@@H]2CCCN12` had a melting point of 226 to 227 °C. `CNc1ccc2c(c1)N(C)C(=O)N(c1ccc(Cl)cc1)S2(=O)=O`: the melting point is 207 to 209 °C. `CCC1(CCCCCBr)C(=O)Nc2ccccc21` (stereo not drawn) had a melting point of 77 to 78 °C.

The compound `COc1ccc(-c2nc(-c3ccccc3)sc2-c2ccc(OC)cc2)cc1` had a melting point of 117 to 118 °C. In the case of `Cc1ccc([N+](=O)[O-])c2[nH]cc(CO)c(=O)c12`, the melting point was in the range of 251 to 255 °C. Turning to `CCOC(=O)c1ccc(N(CCOc2ccc(C(C)=O)c3ccccc23)C(=O)C(F)(F)F)cc1`, the melting point was in the range of 160 to 161 °C.

Compound `CCNC(=O)Nc1ccc(-c2sc3c(c2CN(C)C(C)C)c(=O)n(-c2ccccc2)c(=O)n3Cc2c(F)cccc2F)cc1` showed a melting point of 208 to 210 °C. In the case of `CCc1c(-c2ccc(O)cc2)c2c(COCCCCCCN3CCCCC3)cc3c(O)ccc1n32` it was 129 to 131 °C; in that of `Clc1c2ccccc2nc2c1cnn2C1CCCC1`, 97 to 98 °C; in that of `O=Cc1ccc(O)cn1`, 134 to 135 °C. Then `CCOC(=O)N(C(=O)N1CC(c2ccc(Cl)cn2)C(c2ccc(F)cc2)=N1)c1ccc(OC(F)(F)F)cc1` (stereo not drawn), with 160 to 161 °C; and `CC(C)(C)OC(=O)NCc1ccc(C(=O)NCCC(=O)OCc2ccccc2)cc1`, with 113 to 116 °C; and `O=C1Nc2ccccc2C(=O)C1=O`, with more than 250 °C. In the case of `CSc1ccc(-c2c(Cl)ncn2-c2ccc(S(C)(=O)=O)cc2)cc1` it was 216 to 220 °C; in that of `CCCCN(NC(=O)c1ccccc1)C(=O)c1ccc(Cl)c(Cl)c1`, 234 to 236 °C.

On to `Nc1nc(-c2ccccc2)c(CCBr)c2ncnn12`, for which the melting point was 193 to 194 °C. Then `CCOC(=O)C1=C(COCCn2c(C)nc3ccccc32)NC(C)=C(C(=O)NC(C)(C)C)C1c1ccccc1Cl` (stereo not drawn), with 157 to 161 °C; and `CC(=O)Nc1ncc(SC#N)s1`, with 212 °C; and `Cc1cc(C)c2c(c1C)OCC2c1ccc(C(C)C)cc1` (stereo not drawn), with 48 to 49 °C. As for `COc1cccc(-c2cc(=O)c3cccc(C(=O)Nc4ccc(CCCCN5CCc6cc(OC)c(OC)cc6C5)cc4)c3o2)c1`, the melting point is 152 °C. On to `Cc1cc(=O)n(-c2cccc(Cl)c2)c(=O)[nH]1`, for which the melting point was 250 to 252 °C. In the case of `CCOC(=O)N1C=CC(c2c(-c3ccc(F)cc3)nc3c(C)c(C)c(Cl)nn23)C=N1` (stereo not drawn) it was 159 to 161 °C; in that of `CCC1c2cccn2-c2ccc(Br)cc2N1S(=O)(=O)c1ccc(O)cc1` (stereo not drawn), 206 to 208 °C. Compound `Cc1ccc(-n2nc(C(C)(C)C)cc2NC(=O)Nc2ccc(OCCN3CCOCC3)c3ccccc23)cc1` had a melting point of 142 to 143 °C. In the case of `O=C(CCl)c1ccc2c(c1)[nH]c1ccccc12` it was 203 to 204 °C. Then `Cc1c(N)cc2c(c1C)OC(C)(C)C2=O`, with 149 to 150 °C; and `OC1CSC(Oc2cc(-c3ccccn3)cc(F)c2F)C(O)C1O` (stereo not drawn), with 162 °C; and `Cc1cccc(N2CCN(CCCON3C(=O)c4ccccc4C3=O)CC2)c1`, with 127 to 128 °C. Then `CCn1c(=O)c2c(O)cc(=O)oc2c2ccc(Cl)cc21`, with 276 to 278 °C. Take `COCCOCC(=O)N(c1c(C)c(C)cc2ccccc12)C1CCOC1=O` (stereo not drawn): the melting point was in the range of 142 to 146 °C. In the case of `Clc1c(OCC2CO2)cccc1N1CCCCC1` (stereo not drawn) it was 55 to 57 °C; in that of `O=C(C1=C(O)CCS1)c1nnn(Cc2ccccc2)c1Cl`, 118 to 120 °C.

For the compound `O=C(O)c1cc2c(F)ccc(Cl)c2s1`, the melting point is 248 to 249 °C. Regarding `CC(C)(C)c1cc(NC(=O)Nc2ccc(Oc3ccccc3)cc2)on1`, the melting point lay in the range of 182 to 184 °C. In the case of `CN(Cc1cc2cc(Cl)ccc2o1)C1CCN(c2ccc(OC[C@@]3(C)Cn4cc([N+](=O)[O-])nc4O3)cc2)CC1` it was 207 to 210 °C; in that of `COc1ccc2[nH]c(C(=O)c3ccccc3)c(NC(C)=O)c2c1OC`, 118 to 120 °C.

The values above are taken from a melting point compilation (Tetko et al.; mined from patent text by program, amines drawn as free bases though some values may be those of a salt).
